Test results: patent US8394442B2, “Process for the preparation of a flavoring concentrate, and a flavoring concentrate” (SYMRISE AG, priority 2007, dated 2013)
Read-outs that look alike come from different tables or passages of the source.

Experiment: log Pow* calculated by Formula 2 from log Pow and the polarity parameter P′(x) of the ethanol/water mixture
[1] = solvent ethanol, proportion 10%
[2] = solvent ethanol, proportion 30%
[3] = solvent ethanol, proportion 40%
[4] = solvent ethanol, proportion 50%
[5] = solvent ethanol, proportion 60%
[6] = solvent ethanol, proportion 70%
[7] = solvent ethanol, proportion 80%
[8] = solvent ethanol, proportion 90%
[9] = solvent ethanol, proportion 100%

Question: Which results are given for C=Cc1ccc(O)c(OC)c1?
Answer: log Pow* (P′ 2%): 2.40; log Pow* (P′ 4%): 2.32; log Pow* (P′ 6%): 2.25; log Pow* (P′ 8%): 2.18; log Pow* (P′ 10%): 2.12; log Pow* (P′ 30%): 1.61; log Pow* (P′ 40%): 1.42; log Pow* (P′ 50%): 1.26; log Pow* (P′ 60%): 1.13; log Pow* (P′ 70%): 1.01; log Pow* (P′ 80%): 0.91; log Pow* (P′ 90%): 0.82; log Pow* (P′ 100%): 0.75

Question: Which “log Pow* (P′ 2%)” value (solvent ethanol, proportion 2%) does the source give for O=Cc1ccccc1 [Benzaldehyde] here?
Answer: 1.52

Question: What about the “log Pow* (P′ 4%)” value (solvent ethanol, proportion 4%) of the same compound?
Answer: 1.40

Question: What about the “log Pow* (P′ 6%)” value (solvent ethanol, proportion 6%) of the same compound?
Answer: 1.30

Question: What about the “log Pow* (P′ 8%)” value (solvent ethanol, proportion 8%) of the same compound?
Answer: 1.19

Question: And the “log Pow* (P′ 10%)” value [1]?
Answer: 1.09

Question: What about the “log Pow* (P′ 30%)” value [2] of the same compound?
Answer: 0.32

Question: What about the “log Pow* (P′ 40%)” value [3] of the same compound?
Answer: 0.03

Question: What about the “log Pow* (P′ 50%)” value [4] of the same compound?
Answer: −0.20

Question: What about the “log Pow* (P′ 60%)” value [5] of the same compound?
Answer: −0.41

Question: And the “log Pow* (P′ 70%)” value [6]?
Answer: −0.58

Question: What about the “log Pow* (P′ 80%)” value [7] of the same compound?
Answer: −0.73

Question: And the “log Pow* (P′ 90%)” value [8]?
Answer: −0.86

Question: And the “log Pow* (P′ 100%)” value [9]?
Answer: −0.98

Question: What does the source list for O=Cc1ccco1 [Furfural]?
Answer: log Pow* (P′ 2%) (solvent ethanol, proportion 2%): 0.46; log Pow* (P′ 4%) (solvent ethanol, proportion 4%): 0.20; log Pow* (P′ 6%) (solvent ethanol, proportion 6%): −0.04; log Pow* (P′ 8%) (solvent ethanol, proportion 8%): −0.28; log Pow* (P′ 10%) [1]: −0.50; log Pow* (P′ 30%) [2]: −2.24; log Pow* (P′ 40%) [3]: −2.88; log Pow* (P′ 50%) [4]: −3.41; log Pow* (P′ 60%) [5]: −3.87; log Pow* (P′ 70%) [6]: −4.26; log Pow* (P′ 80%) [7]: −4.60; log Pow* (P′ 90%) [8]: −4.90; log Pow* (P′ 100%) [9]: −5.16

Question: For OCc1ccco1 [Furfuryl alcohol], which “log Pow* (P′ 2%)” value (solvent ethanol, proportion 2%) is on record?
Answer: −0.43

Question: What about the “log Pow* (P′ 4%)” value (solvent ethanol, proportion 4%) of the same compound?
Answer: −1.10

Question: What about the “log Pow* (P′ 6%)” value (solvent ethanol, proportion 6%) of the same compound?
Answer: −1.74

Question: And the “log Pow* (P′ 8%)” value (solvent ethanol, proportion 8%)?
Answer: −2.35

Question: And the “log Pow* (P′ 10%)” value [1]?
Answer: −2.92

Question: And the “log Pow* (P′ 30%)” value [2]?
Answer: −7.46

Question: What about the “log Pow* (P′ 40%)” value [3] of the same compound?
Answer: −9.13

Question: And the “log Pow* (P′ 50%)” value [4]?
Answer: −10.52

Question: And the “log Pow* (P′ 60%)” value [5]?
Answer: −11.71

Question: And the “log Pow* (P′ 70%)” value [6]?
Answer: −12.73

Question: What about the “log Pow* (P′ 80%)” value [7] of the same compound?
Answer: −13.61

Question: And the “log Pow* (P′ 90%)” value [8]?
Answer: −14.39

Question: And the “log Pow* (P′ 100%)” value [9]?
Answer: −15.08

Question: What does the source list for CCCCCC=O [Hexanal]?
Answer: log Pow* (P′ 4%): 1.77; log Pow* (P′ 6%): 1.68; log Pow* (P′ 8%): 1.60; log Pow* (P′ 10%): 1.51; log Pow* (P′ 30%): 0.87; log Pow* (P′ 40%): 0.63; log Pow* (P′ 50%): 0.43; log Pow* (P′ 60%): 0.27; log Pow* (P′ 70%): 0.12; log Pow* (P′ 80%): 0.00; log Pow* (P′ 90%): −0.12; log Pow* (P′ 100%): −0.21

Question: For CCCCCCOC(C)=O [Hexylacetate], which “log Pow* (P′ 2%)” value is on record?
Answer: 2.76

Question: And the “log Pow* (P′ 4%)” value?
Answer: 2.69

Question: And the “log Pow* (P′ 6%)” value?
Answer: 2.63

Question: What about the “log Pow* (P′ 8%)” value of the same compound?
Answer: 2.57

Question: What about the “log Pow* (P′ 10%)” value of the same compound?
Answer: 2.51

Question: And the “log Pow* (P′ 30%)” value?
Answer: 2.06

Question: What about the “log Pow* (P′ 40%)” value of the same compound?
Answer: 1.90

Question: And the “log Pow* (P′ 50%)” value?
Answer: 1.76

Question: And the “log Pow* (P′ 60%)” value?
Answer: 1.64

Question: What about the “log Pow* (P′ 70%)” value of the same compound?
Answer: 1.54

Question: What about the “log Pow* (P′ 80%)” value of the same compound?
Answer: 1.46

Question: And the “log Pow* (P′ 90%)” value?
Answer: 1.38

Question: And the “log Pow* (P′ 100%)” value?
Answer: 1.31
